The record followed here is ChEMBL document CHEMBL5724914, “Linking interpersonal differences in gut microbiota composition and drug biotransformation activity” (2024).

The conditions of data set [1]: human gut metagenome, 24 h, 2 µM.
Data set [2] is described as follows: The drug is tested on WLS-027 corresponding to human gut metagenome with ENA study accession number: PRJEB37062 and ENA sample accession number: ERS12561744 for biotransformation under anaerobic condition. The drug concentrations were measured over 9 timepoints collected between 0 and 24 hours of incubation by liquid-chromatography-coupled mass spectrometry (LC–MS). As to conditions: 2 µM.

A short description of data set [3]: The drug is tested on Z-003 corresponding to pig gut metagenome with ENA study accession number: PRJEB37062 and ENA sample accession number: ERS12561803 for biotransformation under anaerobic condition. The drug concentrations were measured over 9 timepoints collected between 0 and 24 hours of incubation by liquid-chromatography-coupled mass spectrometry (LC–MS). As to conditions: 2 µM.

The conditions of data set [4]: human gut metagenome, 24 h, 2 µM. This is another data set of the same source.
The conditions of data set [5]: human gut metagenome, 24 h, 2 µM. The source holds these as a separate data set.
For data set [6] the following is noted: human gut metagenome, 24 h, 2 µM. This is another data set of the same source.
Data set [7] is described as follows: The drug is tested on WLS-038 corresponding to human gut metagenome with ENA study accession number: PRJEB37062 and ENA sample accession number: ERS12561745 for biotransformation under anaerobic condition. The drug concentrations were measured over 9 timepoints collected between 0 and 24 hours of incubation by liquid-chromatography-coupled mass spectrometry (LC–MS). The following applies: 2 µM.

The conditions of data set [8]: human gut metagenome, 24 h, 2 µM. The source holds these as a separate data set.
The nature of data set [9]: The drug is tested on WLS-086 corresponding to human gut metagenome with ENA study accession number: PRJEB37062 and ENA sample accession number: ERS12561752 for biotransformation under anaerobic condition. The drug concentrations were measured over 9 timepoints collected between 0 and 24 hours of incubation by liquid-chromatography-coupled mass spectrometry (LC–MS). As to conditions: 2 µM.

For data set [10] the following is noted: human gut metagenome, 24 h, 2 µM. This is another data set of the same source.
Data set [11] can be described thus: The drug is tested on Z-002 corresponding to rabbit gut metagenome with ENA study accession number: PRJEB37062 and ENA sample accession number: ERS12561802 for biotransformation under anaerobic condition. The drug concentrations were measured over 9 timepoints collected between 0 and 24 hours of incubation by liquid-chromatography-coupled mass spectrometry (LC–MS). As to conditions: 2 µM.

For data set [12] the following is noted: human gut metagenome, 24 h, 2 µM. The source holds these as a separate data set.
The conditions of data set [13]: human gut metagenome, 24 h, 2 µM. The source holds these as a separate data set.
For data set [14] the following is noted: human gut metagenome, 24 h, 2 µM. The source holds these as a separate data set.
Data set [15] is described as follows: The drug is tested on Z-028 corresponding to mouse gut metagenome with ENA study accession number: PRJEB37062 and ENA sample accession number: ERS12561827 for biotransformation under anaerobic condition. The drug concentrations were measured over 9 timepoints collected between 0 and 24 hours of incubation by liquid-chromatography-coupled mass spectrometry (LC–MS). The following applies: 2 µM.

The nature of data set [16]: The drug is tested on Z-010 corresponding to metagenome with ENA study accession number: PRJEB37062 and ENA sample accession number: ERS12561810 for biotransformation under anaerobic condition. The drug concentrations were measured over 9 timepoints collected between 0 and 24 hours of incubation by liquid-chromatography-coupled mass spectrometry (LC–MS). The following applies: 2 µM.

For data set [17] the following is noted: human gut metagenome, 24 h, 2 µM. The source holds these as a separate data set.
Data set [18] is described as follows: The drug is tested on Z-018 corresponding to pig gut metagenome with ENA study accession number: PRJEB37062 and ENA sample accession number: ERS12561817 for biotransformation under anaerobic condition. The drug concentrations were measured over 9 timepoints collected between 0 and 24 hours of incubation by liquid-chromatography-coupled mass spectrometry (LC–MS). The following applies: 2 µM.

Data set [19] can be described thus: The drug is tested on Z-027 corresponding to metagenome with ENA study accession number: PRJEB37062 and ENA sample accession number: ERS12561826 for biotransformation under anaerobic condition. The drug concentrations were measured over 9 timepoints collected between 0 and 24 hours of incubation by liquid-chromatography-coupled mass spectrometry (LC–MS). The following applies: 2 µM.

The nature of data set [20]: The drug is tested on Z-013 corresponding to rabbit gut metagenome with ENA study accession number: PRJEB37062 and ENA sample accession number: ERS12561813 for biotransformation under anaerobic condition. The drug concentrations were measured over 9 timepoints collected between 0 and 24 hours of incubation by liquid-chromatography-coupled mass spectrometry (LC–MS). The following applies: 2 µM.
Further: call rule not given here.

For `CN1CCC(OC(c2ccccc2)c2ccccc2)CC1`, the “Bacterial Biotransformation” value in data set [1] is on record as “Compound metabolized”; in [2], “Compound NOT metabolized”; in data set [3], “Compound NOT metabolized”; in [4] it was “Compound NOT metabolized”; in data set [5], “Compound NOT metabolized”; in data set [6], “Compound metabolized”. Also, the “Bacterial Biotransformation” value in [7] is “Compound NOT metabolized”; in [8], “Compound metabolized”; in data set [9], “Compound metabolized”; in [10] it was “Compound metabolized”; in data set [11], “Compound NOT metabolized”; in data set [12] it was “Compound NOT metabolized”. The “Bacterial Biotransformation” value was “Compound NOT metabolized” in data set [13]; “Compound metabolized” in data set [14]; “Compound NOT metabolized” in data set [15]; “Compound NOT metabolized” in data set [16]; “Compound NOT metabolized” in [17]; “Compound metabolized” in data set [18]. Also, the “Bacterial Biotransformation” value in data set [19] and in [20] was “Compound NOT metabolized” in each case.

For the compound `CC1=C(CC(=O)O)c2cc(F)ccc2/C1=C\c1ccc([S+](C)[O-])cc1` (configuration not stated), the “Bacterial Biotransformation” value is “Compound metabolized” in [1]; “Compound metabolized” in data set [2]; “Compound NOT metabolized” in data set [3]; “Compound metabolized” in [4]; “Compound metabolized” in data set [5]; “Compound metabolized” in data set [6]. The “Bacterial Biotransformation” value is reported as “Compound metabolized” in data set [7]; “Compound metabolized” in [8]; “Compound metabolized” in [9]; “Compound metabolized” in data set [10]; “Compound NOT metabolized” in data set [11]; “Compound metabolized” in [12]. In addition, the “Bacterial Biotransformation” value was “Compound metabolized” in data set [13]; “Compound metabolized” in data set [14]; “Compound NOT metabolized” in data set [15]; “Compound NOT metabolized” in [16]; “Compound metabolized” in data set [17]; “Compound metabolized” in data set [18]. Moreover, the “Bacterial Biotransformation” value in data set [19] and in data set [20] was “Compound NOT metabolized” in each case.

In the case of `CCOC(=O)[C@H](CCc1ccccc1)N[C@@H](C)C(=O)N1Cc2ccccc2C[C@H]1C(=O)O`, the “Bacterial Biotransformation” value in data set [1] is given as “Compound metabolized”; in [2] it was “Compound metabolized”; in data set [3] it was “Compound metabolized”; in data set [4], “Compound NOT metabolized”; in data set [5], “Compound metabolized”; in [6] it was “Compound metabolized”. Also, the “Bacterial Biotransformation” value in data set [7], in data set [8], in data set [9], in data set [10], in [11] and in data set [12] was “Compound metabolized” throughout. Besides, the “Bacterial Biotransformation” value in [13] is “Compound NOT metabolized”; in data set [14], “Compound NOT metabolized”; in data set [15], “Compound NOT metabolized”; in data set [16], “Compound NOT metabolized”; in [17], “Compound metabolized”; in data set [18] it was “Compound NOT metabolized”. Besides, the “Bacterial Biotransformation” value in data set [19] and in data set [20] was “Compound NOT metabolized” throughout.

In the case of `COc1ccc(/C=C/C(=O)Nc2ccccc2C(=O)O)cc1OC`, the “Bacterial Biotransformation” value was “Compound NOT metabolized” in [1]; “Compound metabolized” in [2]; “Compound metabolized” in [3]; “Compound NOT metabolized” in data set [4]; “Compound NOT metabolized” in [5]; “Compound NOT metabolized” in data set [6]. The “Bacterial Biotransformation” value in data set [7] is given as “Compound metabolized”; in data set [8] it was “Compound NOT metabolized”; in [9], “Compound NOT metabolized”; in data set [10] it was “Compound NOT metabolized”; in data set [11], “Compound metabolized”; in data set [12], “Compound NOT metabolized”. For the same compound, the “Bacterial Biotransformation” value in [13] is listed as “Compound NOT metabolized”; in [14], “Compound NOT metabolized”; in [15], “Compound NOT metabolized”; in data set [16] it was “Compound metabolized”; in [17], “Compound NOT metabolized”; in [18], “Compound metabolized”. For the same compound, the “Bacterial Biotransformation” value in data set [19] and in [20] was “Compound metabolized” throughout.

Turning to `C#C[C@]1(OC(C)=O)CC[C@H]2[C@@H]3CCC4=C[C@@H](OC(C)=O)CC[C@@H]4[C@H]3CC[C@@]21C` [ETHYNODIOL DIACETATE], the “Bacterial Biotransformation” value in data set [1], in data set [3], in data set [4], in data set [5], in data set [6] and in [7] was “Compound metabolized” in each case. For the same compound, the “Bacterial Biotransformation” value in [8], in data set [9], in data set [10], in data set [11], in data set [12] and in [13] was “Compound metabolized” throughout. For the same compound, the “Bacterial Biotransformation” value in data set [14], in data set [15], in data set [16], in data set [17], in [18] and in data set [19] was “Compound metabolized” each time. Moreover, the “Bacterial Biotransformation” value in data set [20] is recorded as “Compound metabolized”.

In the case of `CN(C/C=C/C#CC(C)(C)C)Cc1cccc2ccccc12` [TERBINAFINE], the “Bacterial Biotransformation” value in [1] was “Compound NOT metabolized”; in data set [2] it was “Compound NOT metabolized”; in [3], “Compound NOT metabolized”; in [5], “Compound metabolized”; in data set [6] it was “Compound NOT metabolized”; in data set [8], “Compound NOT metabolized”. For the same compound, the “Bacterial Biotransformation” value in [9] was “Compound metabolized”; in data set [10], “Compound NOT metabolized”; in data set [11], “Compound NOT metabolized”; in data set [12] it was “Compound NOT metabolized”; in [13], “Compound NOT metabolized”; in data set [14], “Compound NOT metabolized”. Moreover, the “Bacterial Biotransformation” value in data set [15], in data set [16], in [17], in data set [18], in data set [19] and in [20] was “Compound NOT metabolized” each time.
